Experimental data published in US12636291B2, “Compositions and methods relating to use of agonists of ALPHA5-containing GABAA receptors” (Centre for Addiction and Mental Health, priority 2019, dated 2026).

Test system: SV129 mice
Assay: Neurogenesis (proliferation, survival, maturation) in the SV129 mouse model
Type: in vivo
Details: compared to VEH
From the text: We next assessed the effects of GL-II-73 on neurogenesis using the SV129 mouse model Kim et al. 2017. Neural Plasticity, doi.org.10.1155/2017/5863258. Specifically, we assessed the effects of treatment on neuronal cell proliferation, survival, and maturation. It is now recognized that neurogenesis occurs not only during development, but also in the adult brain. […] Specifically, adult neurogenesis is known to occur in three regions in the mammalian brain: (i) the subgranular zone (SGZ) of the dentate gyrus in the hippocampus, which is a region that is involved in regulating learning and memory; (ii) the subventricular zone (SVZ), which is situated throughout the lateral walls of the brain's lateral ventricles; and (ii) the amygdala. New neurons born in the SGZ migrate into the granule cell layer of the dentate gyrus and eventually become granule cells. These newborn neurons integrate into the existing circuitry and receive functional input. Adult neurogenesis in the hippocampus is therefore defined as the progression from neural stem cell to mature dentate granule neuron. All stages of adult neurogenesis are regulated by physiological activity, including the proliferation, differentiation, fate determination of adult neural stem cells (NSCs) and progenitors, and the survival, maturation, and integration of newborn neurons.
The stages of neurogenesis can be broken down into (i) proliferation, (ii) survival of the newly formed cells, and (iii) their maturation. Each can be evaluated using specific markers for proliferation, survival, and maturation. […] BrdU can be used to show survival of the newly proliferating cells since it is incorporated into the newly synthesized DNA of replicating cells and is then maintained in the newly formed cells. Thus, quantitative immunohistochemistry against BrdU is used as a proxy of survival. Finally, doublecortin can be used as a proxy of maturation. Previous studies have shown that all steps of neurogenesis were down regulated in the SV129 mice, and further that chronic treatment with fluoxetine, a first line monoaminergic antidepressant, increased the neurogenesis in this mouse model. We therefore used this model system to assess the effects of chronic treatment with GL-II-73 on neurogenesis.
Fluoxetine treatment was used as a positive control in each experiment.

## CNCCC(Oc1ccc(C(F)(F)F)cc1)c1ccccc1 (stereo not shown) [FLX, fluoxetine]
Chronic treatment (4 weeks), FIG. 13A, FLX p<0.001, GL-II-73 p<0.05
  proliferation: number of K167-positive cells: increased the number of K167-positive cells
Chronic treatment (4 weeks), FIG. 13B
  survival: BrdU-positive cells: only FLX increased BrdU-positive cells
Chronic treatment, FIG. 14A, ps<0.05
  maturation: number of DCX+cells: increased with FLX compared to VEH
Chronic treatment, FIG. 14B, ps<0.01
  maturation index (DCX+cells possessing tertiary dendrites over the total DCX+cells): an increase with both FLX and GL-II-73
